Measured values reported in PubChem BioAssay AID1963861 (Molecular Pharmacology Branch, DTP, NCI, 2024).

Test system: 885724-159-R-J1-PDC KRAS PDC multicell spheroid viability
Test: Anticancer human tumor 885724-159-R-J1-PDC patient-derived pancreatic adenocarcinoma cell line growth inhibition [KRAS2]
Settings: for IC50: curve of first compound; for viability, T/C: stronger effect = lower value
Summary of the method: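 Combination screen of spheroid viability in tumor-cell co-cultures with endothelial (HUVEC) and mesenchymal stem cell stroma. Each agent was tested in half-log dilutions, topping at clinical Cmax or at 10 microM without a known Cmax.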

[1] = second compound 0.0316 µM, first compound 0.0316 µM
[2] = second compound 0.0316 µM, first compound 0.1 µM
[3] = second compound 0.0316 µM, first compound 0.316 µM
[4] = second compound 0.0316 µM, first compound 1 µM
[5] = second compound 0.0316 µM, first compound 3.16 µM
[6] = second compound 0.0316 µM, first compound 10 µM
[7] = second compound 0.1 µM, first compound 0.0316 µM
[8] = second compound 0.1 µM, first compound 0.1 µM
[9] = second compound 0.1 µM, first compound 0.316 µM
[10] = second compound 0.1 µM, first compound 1 µM
[11] = second compound 0.1 µM, first compound 3.16 µM
[12] = second compound 0.1 µM, first compound 10 µM
[13] = second compound 0.316 µM, first compound 0.0316 µM
[14] = second compound 0.316 µM, first compound 0.1 µM
[15] = second compound 0.316 µM, first compound 0.316 µM
[16] = second compound 0.316 µM, first compound 1 µM
[17] = second compound 0.316 µM, first compound 3.16 µM
[18] = second compound 0.316 µM, first compound 10 µM
[19] = second compound 1 µM, first compound 0.0316 µM
[20] = second compound 1 µM, first compound 0.1 µM
[21] = second compound 1 µM, first compound 0.316 µM
[22] = second compound 1 µM, first compound 1 µM
[23] = second compound 1 µM, first compound 3.16 µM
[24] = second compound 1 µM, first compound 10 µM
[25] = second compound 3.16 µM, first compound 0.0316 µM
[26] = second compound 3.16 µM, first compound 0.1 µM
[27] = second compound 3.16 µM, first compound 0.316 µM
[28] = second compound 3.16 µM, first compound 1 µM
[29] = second compound 3.16 µM, first compound 3.16 µM
[30] = second compound 3.16 µM, first compound 10 µM
[31] = second compound 0.0316 µM, first compound 0.000316 µM
[32] = second compound 0.0316 µM, first compound 0.001 µM
[33] = second compound 0.0316 µM, first compound 0.00316 µM
[34] = second compound 0.0316 µM, first compound 0.01 µM
[35] = second compound 0.1 µM, first compound 0.000316 µM
[36] = second compound 0.1 µM, first compound 0.001 µM
[37] = second compound 0.1 µM, first compound 0.00316 µM
[38] = second compound 0.1 µM, first compound 0.01 µM
[39] = second compound 0.316 µM, first compound 0.000316 µM
[40] = second compound 0.316 µM, first compound 0.001 µM
[41] = second compound 0.316 µM, first compound 0.00316 µM
[42] = second compound 0.316 µM, first compound 0.01 µM
[43] = second compound 1 µM, first compound 0.000316 µM
[44] = second compound 1 µM, first compound 0.001 µM
[45] = second compound 1 µM, first compound 0.00316 µM
[46] = second compound 1 µM, first compound 0.01 µM
[47] = second compound 3.16 µM, first compound 0.000316 µM
[48] = second compound 3.16 µM, first compound 0.001 µM
[49] = second compound 3.16 µM, first compound 0.00316 µM
[50] = second compound 3.16 µM, first compound 0.01 µM
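Note: spheroids exposed to agents for 7 days before readout.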

Structure (SMILES)	IC50 (second compound 0.0316 µM) [nM]	IC50 (second compound 0.1 µM) [nM]	IC50 (second compound 0.316 µM) [nM]	IC50 (second compound 1 µM) [nM]	IC50 (second compound 3.16 µM) [nM]	viability, T/C [1] [%]	viability, T/C [2] [%]	viability, T/C [3] [%]	viability, T/C [4] [%]	viability, T/C [5] [%]	viability, T/C [6] [%]	viability, T/C [7] [%]	viability, T/C [8] [%]	viability, T/C [9] [%]	viability, T/C [13] [%]	viability, T/C [14] [%]	viability, T/C [19] [%]	viability, T/C [20] [%]	viability, T/C [25] [%]	viability, T/C [26] [%]	other results
CC(C)NCC(C(=O)N1CCN(c2ncnc3c2C(C)CC3O)CC1)c1ccc(Cl)cc1 (stereo not given) + C=CC(=O)N1CCN(c2nc(OCC3CCCN3C)nc3c2CCN(c2cccc4cccc(C)c24)C3)CC1CC#N	> 10000	> 10000	> 10000	> 10000	43.6	84.5	83.1	81.1	75.4	75.6	62.5	90.8	79.2	69.9	89.3	74.3	83.5	72.5	55.9	37	viability, T/C [10]: 65.9%; viability, T/C [11]: 79%; viability, T/C [12]: 56.9%; viability, T/C [15]: 67.9%; viability, T/C [16]: 68.9%; viability, T/C [17]: 69.8%; viability, T/C [18]: 57.2%; viability, T/C [21]: 61.5%; viability, T/C [22]: 58.7%; viability, T/C [23]: 61.4%; viability, T/C [24]: 48.3%; viability, T/C [27]: 33.8%; viability, T/C [28]: 26.8%; viability, T/C [29]: 16.4%; viability, T/C [30]: 6.38%
CC(C)n1nc(-c2ccc3oc(N)nc3c2)c2c(N)ncnc21 + C=CC(=O)N1CCN(c2nc(OCC3CCCN3C)nc3c2CCN(c2cccc4cccc(C)c24)C3)CC1CC#N	41.5	24.2	19.1	8.71	0.86	49.9	45.9	–	–	–	–	44.2	41.2	–	45.1	41.8	44.1	41.1	24	15.7	viability, T/C [31]: 88.8%; viability, T/C [32]: 77.3%; viability, T/C [33]: 67.8%; viability, T/C [34]: 60.6%; viability, T/C [35]: 88.1%; viability, T/C [36]: 80.4%; viability, T/C [37]: 69.4%; viability, T/C [38]: 61.7%; viability, T/C [39]: 82.1%; viability, T/C [40]: 73.8%; viability, T/C [41]: 61.4%; viability, T/C [42]: 55.6%; viability, T/C [43]: 81.9%; viability, T/C [44]: 85.5%; viability, T/C [45]: 63.8%; viability, T/C [46]: 50.2%; viability, T/C [47]: 68.3%; viability, T/C [48]: 43.1%; viability, T/C [49]: 42.9%; viability, T/C [50]: 15.3%
CC1(C)CCC(CN2CCN(c3ccc(C(=O)NS(=O)(=O)c4ccc(NCC5CCOCC5)c([N+](=O)[O-])c4)c(Oc4cnc5[nH]ccc5c4)c3)CC2)=C(c2ccc(Cl)cc2)C1 + C=CC(=O)N1CCN(c2nc(OCC3CCCN3C)nc3c2CCN(c2cccc4cccc(C)c24)C3)CC1CC#N	4250	5180	3280	3850	339	99.3	100	108	101	64.8	7.81	115	100	93.1	100	99.8	86.1	97.8	55.2	55	viability, T/C [10]: 107%; viability, T/C [11]: 80.5%; viability, T/C [12]: 9.45%; viability, T/C [15]: 94.8%; viability, T/C [16]: 100%; viability, T/C [17]: 51.3%; viability, T/C [18]: 9.84%; viability, T/C [21]: 87.3%; viability, T/C [22]: 84.5%; viability, T/C [23]: 59%; viability, T/C [24]: 6.08%; viability, T/C [27]: 43.9%; viability, T/C [28]: 35.8%; viability, T/C [29]: 0.97%; viability, T/C [30]: 0.63%
Cn1ncnc1[C@H]1c2n[nH]c(=O)c3cc(F)cc(c23)N[C@@H]1c1ccc(F)cc1 + C=CC(=O)N1CCN(c2nc(OCC3CCCN3C)nc3c2CCN(c2cccc4cccc(C)c24)C3)CC1CC#N	> 100	> 100	> 100	> 100	> 100	97.8	96.1	–	–	–	–	106	89.5	–	112	88.6	102	99.4	59.5	59.7	viability, T/C [31]: 115%; viability, T/C [32]: 117%; viability, T/C [33]: 108%; viability, T/C [34]: 103%; viability, T/C [35]: 106%; viability, T/C [36]: 108%; viability, T/C [37]: 98.7%; viability, T/C [38]: 108%; viability, T/C [39]: 110%; viability, T/C [40]: 111%; viability, T/C [41]: 106%; viability, T/C [42]: 102%; viability, T/C [43]: 100%; viability, T/C [44]: 114%; viability, T/C [45]: 108%; viability, T/C [46]: 101%; viability, T/C [47]: 69.6%; viability, T/C [48]: 61.4%; viability, T/C [49]: 63.3%; viability, T/C [50]: 67.7%
